Assay results taken from patent publication US20250313548A1 (Actio Biosciences, Inc., priority 2023, published 2025).

target: human, KCNT1 (Homo sapiens (Human), UniProt Q5JUK3); assay: FLIPR Tl/K Flux Assay; type: cell-based; conditions: HEK293 cells stably expressing human KCNT1; Tl+ flux stimulated with EC80 of agonist Loxapine
How it was run: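 HEK293 cells stably expressing human KCNT1 were loaded with FLIPR potassium dye in HEPES/HBSS pH 7.4 with 5 mM probenecid, 1 h at 25 °C, then given test compound for 30 min at 25 °C. Tl+ flux was triggered with chloride-free buffer containing Tl+ and EC80 loxapine and read 160 s. IC50 came from Hill fits of % inhibition.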

Sequence of human, KCNT1 (Q5JUK3 whole entry): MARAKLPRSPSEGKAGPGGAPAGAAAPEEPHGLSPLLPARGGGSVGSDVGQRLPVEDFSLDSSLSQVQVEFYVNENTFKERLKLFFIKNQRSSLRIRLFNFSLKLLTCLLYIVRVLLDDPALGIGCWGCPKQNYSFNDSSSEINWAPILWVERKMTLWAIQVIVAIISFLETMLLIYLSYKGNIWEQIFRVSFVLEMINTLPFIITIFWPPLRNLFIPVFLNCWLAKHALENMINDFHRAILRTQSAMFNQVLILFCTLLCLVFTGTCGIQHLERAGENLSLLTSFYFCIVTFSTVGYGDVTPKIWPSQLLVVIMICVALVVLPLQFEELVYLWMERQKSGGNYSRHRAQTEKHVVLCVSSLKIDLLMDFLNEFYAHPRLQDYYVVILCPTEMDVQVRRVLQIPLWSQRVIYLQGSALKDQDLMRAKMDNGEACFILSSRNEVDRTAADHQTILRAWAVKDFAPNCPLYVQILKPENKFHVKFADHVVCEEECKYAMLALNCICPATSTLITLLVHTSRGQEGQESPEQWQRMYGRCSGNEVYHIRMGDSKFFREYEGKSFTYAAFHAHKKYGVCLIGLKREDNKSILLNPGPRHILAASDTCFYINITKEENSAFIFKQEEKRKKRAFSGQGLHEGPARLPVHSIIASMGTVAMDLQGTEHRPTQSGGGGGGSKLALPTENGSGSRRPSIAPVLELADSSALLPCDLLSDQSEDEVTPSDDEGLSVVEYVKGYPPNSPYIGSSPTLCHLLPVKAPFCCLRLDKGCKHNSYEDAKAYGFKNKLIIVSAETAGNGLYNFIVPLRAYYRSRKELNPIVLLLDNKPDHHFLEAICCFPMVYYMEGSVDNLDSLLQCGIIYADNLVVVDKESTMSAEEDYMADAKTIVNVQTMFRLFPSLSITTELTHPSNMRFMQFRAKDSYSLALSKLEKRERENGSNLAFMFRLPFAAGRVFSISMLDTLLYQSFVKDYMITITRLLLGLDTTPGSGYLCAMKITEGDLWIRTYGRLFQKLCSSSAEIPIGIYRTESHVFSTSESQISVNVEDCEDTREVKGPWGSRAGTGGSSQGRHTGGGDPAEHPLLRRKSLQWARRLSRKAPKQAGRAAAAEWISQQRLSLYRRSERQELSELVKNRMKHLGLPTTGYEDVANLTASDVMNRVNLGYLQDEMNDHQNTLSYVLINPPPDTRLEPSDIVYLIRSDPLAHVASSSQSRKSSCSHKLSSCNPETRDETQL

Row | SMILES | IC50
1 | O=C(N[C@H]1CCCn2nc(-c3ccnc(C(F)(F)F)c3)cc21)c1nc2ccccn2n1 [Compound I-422a] | > 1 µM
2 | Cc1ccn(CC(=O)N[C@H]2CCCn3nc(-c4ccnc(C(F)(F)F)c4)cc32)n1 [Compound I-423a] | > 1 µM
3 | N#Cc1c(C(=O)N[C@H]2CCCn3nc(-c4ccnc(C(F)(F)F)c4)cc32)ncn1CC(F)(F)F [Compound I-425a] | > 1 µM
4 | COc1cc(-c2cc3n(n2)CC[C@H]3NC(=O)c2cc(C(F)(F)F)nn2C)ccn1 [Compound I-427b] | > 1 µM
5 | Cc1cc(-c2cc3n(n2)CCC[C@@H]3NC(=O)c2cc(C(F)(F)F)nn2C)cc(C)n1 [Compound I-433a] | > 1 µM
6 | O=C(N[C@H]1CCCn2nc(-c3ccnc(C(F)(F)F)c3)cc21)c1cnn(CC(F)(F)F)c1 [Compound I-435a] | > 1 µM
7 | O=C(N[C@H]1CCCn2nc(-c3ccnc(C(F)(F)F)c3)cc21)c1cc2n(n1)CCO2 [Compound I-436a] | > 1 µM
8 | O=C(N[C@H]1CCCn2nc(-c3ccnc(C(F)(F)F)c3)cc21)c1nccc(C(F)(F)F)n1 [Compound I-438a] | > 1 µM
9 | Cc1ccn2ncc(C(=O)N[C@H]3CCCn4nc(-c5ccnc(C(F)(F)F)c5)cc43)c2n1 [Compound I-440a] | 0.5 to 1 µM
10 | Cn1nc(C(F)(F)F)cc1C(=O)N[C@H]1CCCn2nc(-c3ccnc(C(C)(C)O)c3)cc21 [Compound I-444a] | 0.5 to 1 µM
11 | Cn1nc(C(F)(F)F)cc1C(=O)N[C@H]1CCCc2cnc(-c3ccnc(C(F)(F)F)c3)nc21 [Compound I-452a] | 0.25 to 0.5 µM
12 | Cn1nc(C(F)(F)F)cc1C(=O)N[C@@H]1CCCc2cnc(-c3ccnc(C(F)(F)F)c3)nc21 [Compound I-452b] | > 1 µM
13 | O=C(N[C@H]1CCCc2nnc(-c3ccnc(C(F)(F)F)c3)cc21)c1cc(F)cc(F)c1 [Compound I-453a] | > 1 µM
14 | O=C(N[C@@H]1CCCc2nnc(-c3ccnc(C(F)(F)F)c3)cc21)c1cc(F)cc(F)c1 [Compound I-453b] | > 1 µM
15 | Cn1nc(C(F)(F)F)cc1C(=O)N[C@H]1CCc2ncc(-c3ccnc(C(F)(F)F)c3)cc21 [Compound I-460a] | > 1 µM
16 | O=C(N[C@H]1CCc2nn(-c3ccnc(C4CC4)c3)cc21)c1cc(F)cc(F)c1 [Compound I-462a] | < 0.25 µM
17 | N#Cc1cccc(C(=O)NC2CCCCC3NC(c4ccnc(C(F)(F)F)c4)=NC23)c1 (stereo not shown) [Compound I-463] | > 1 µM
18 | COc1cc(C2=NC3C(NC(=O)c4cccc(C#N)c4)CCCCC3N2)ccn1 (stereo not shown) [Compound I-464] | > 1 µM

Row | SMILES | IC50
19 | Cn1nc(C(F)(F)F)cc1C(=O)NC1CCCn2nc(-c3ccnc(C(F)(F)F)c3)cc2C1 (stereo not shown) [Compound I-465] | < 0.25 µM
20 | Cn1nc(C(F)(F)F)cc1C(=O)NC1CCn2nc(-c3ccnc(C(F)(F)F)c3)cc2C1 (stereo not shown) [Compound I-468] | < 0.25 µM
21 | Cn1nc(C(F)(F)F)cc1C(=O)NC1Cc2cc(-c3ccnc(C(F)(F)F)c3)nn2C1 (stereo not shown) [Compound I-469] | < 0.25 µM
22 | N#Cc1cc(F)cc(C(=O)N[C@@H]2CCCCn3nc(-c4ccnc(C5CC5)c4)cc32)c1 [Compound I-470b] | < 0.25 µM
23 | COc1cc(-c2nc3c(o2)CCC[C@H]3NC(=O)c2cncc(C(F)(F)F)n2)ccn1 [Compound I-471b] | 0.5 to 1 µM
24 | Cc1cnc(C(F)(F)F)cc1-c1cc2n(n1)CC[C@H]2NC(=O)c1cc(C(F)(F)F)nn1C [Compound I-472b] | > 1 µM
25 | COc1cc(-c2nc3n(n2)CCC[C@H]3NC(=O)c2cc(C(F)(F)F)nn2C)ccn1 [Compound I-474b] | > 1 µM
26 | Cn1nc(C(F)(F)F)cc1C(=O)N[C@@H]1CCCc2cc(-c3ccnc(C(F)(F)F)c3)[nH]c21 [Compound I-475b] | > 1 µM
27 | Cn1nc(C(F)(F)F)cc1C(=O)N[C@@H]1CCCCn2nc(-c3cc(C(F)(F)F)ncc3F)cc21 [Compound I-476b] | 0.25 to 0.5 µM
28 | N#Cc1cccc(C(=O)NC2CCCCC3OC(c4ccnc(C(F)(F)F)c4)=NC23)c1 (stereo not shown) [Compound I-477] | < 0.25 µM
29 | O=C(NC1CCc2cnc(-c3ccnc(C(F)(F)F)c3)cc21)c1cc(F)cc(F)c1 (stereo not shown) [Compound I-478] | < 0.25 µM
30 | Cn1nc(C(F)(F)F)nc1C(=O)N[C@@H]1CCn2nc(-c3ccnc(C(C)(F)F)c3)cc21 [Compound I-480b] | 0.5 to 1 µM
31 | Cn1nc(C(F)(F)F)nc1C(=O)N[C@@H]1CCn2nc(-c3cc(C(F)(F)F)ncc3Cl)cc21 [Compound I-481b] | 0.25 to 0.5 µM
32 | Cc1cnc(C(F)(F)F)cc1-c1cc2n(n1)CC[C@H]2NC(=O)c1nc(C(F)(F)F)nn1C [Compound I-482b] | 0.5 to 1 µM
33 | Cn1nc(C(F)(F)F)nc1C(=O)N[C@H]1CCn2nc(-c3cc(C4CC4)ncc3F)cc21 [Compound I-483a, (S)—N-(2-(2-Cyclopropyl-5-fluoropyridin-4-yl)-5,6-dihydro-4H-pyrrolo[1,2-b]pyrazol-4-yl)-1-methyl-3-(trifluoromethyl)-1H-1,2,4-triazole-5-carboxamide] | < 0.25 µM
34 | O=C(N[C@H]1CCn2nc(-c3ccnc(C(F)(F)F)c3)cc21)c1cn(C(F)(F)F)nc1C(F)F [Compound I-484a, (S)-3-(Difluoromethyl)-1-(trifluoromethyl)-N-(2-(2-(trifluoromethyl)pyridin-4-yl)-5,6-dihydro-4H-pyrrolo[1,2-b]pyrazol-4-yl)-1H-pyrazole-4-carboxamide] | < 0.25 µM
35 | COc1cc(C(=O)N[C@@H]2CCn3nc(-c4cc(C(F)(F)F)ncc4F)cc32)ccn1 [Compound I-485b] | < 0.25 µM
36 | Cc1cc(C#N)cc(C(=O)N[C@@H]2CCn3nc(-c4cc(C(F)(F)F)ncc4F)cc32)c1 [Compound I-486b] | 0.25 to 0.5 µM

Second part, the molecule after the results:

Row | IC50 | SMILES
37 | < 0.25 µM | Cc1cc(C#N)cc(C(=O)N[C@H]2CCCn3nc(-c4ccnc(C(F)(F)F)c4)cc32)c1 [Compound I-418a]
38 | < 0.25 µM | O=C(N[C@H]1CCCn2nc(-c3ccnc(C(F)(F)F)c3)cc21)c1cccc(C(F)(F)F)c1F [Compound I-419a]
39 | < 0.25 µM | COc1cc(C(=O)N[C@H]2CCCn3nc(-c4ccnc(C(F)(F)F)c4)cc32)c(F)cn1 [Compound I-420a]
40 | < 0.25 µM | Cn1ncc(C(=O)N[C@H]2CCCn3nc(-c4ccnc(C(F)(F)F)c4)cc32)c1C(F)F [Compound I-421a]
41 | < 0.25 µM | COc1cc(C(=O)N[C@H]2CCCn3nc(-c4ccnc(C(F)(F)F)c4)cc32)nc(C(F)(F)F)n1 [Compound I-424a]
42 | < 0.25 µM | Cc1cc(C(=O)N[C@H]2CCCn3nc(-c4ccnc(C(F)(F)F)c4)cc32)n(C(F)F)n1 [Compound I-426a]
43 | < 0.25 µM | COc1cc(-c2cc3n(n2)CC[C@@H]3NC(=O)c2cc(C(F)(F)F)nn2C)ccn1 [Compound I-427a]
44 | < 0.25 µM | COc1cc(-c2nc3c(o2)CCC[C@@H]3NC(=O)c2cc(C(F)(F)F)nn2C)ccn1 [Compound I-428a]
45 | < 0.25 µM | CC(C)c1cc(-c2cc3n(n2)CCC[C@@H]3NC(=O)c2cc(C(F)(F)F)nn2C)ccn1 [Compound I-429a]
46 | < 0.25 µM | COc1cc(-c2cc3n(n2)CCC[C@@H]3NC(=O)c2cc(C(F)(F)F)nn2C)cc(C)n1 [Compound I-431a]
47 | < 0.25 µM | Cc1cc(-c2cc3n(n2)CCC[C@@H]3NC(=O)c2cc(C(F)(F)F)nn2C)cc(C(F)(F)F)n1 [Compound I-432a]
48 | < 0.25 µM | Cc1nn2ccccc2c1C(=O)N[C@H]1CCCn2nc(-c3ccnc(C(F)(F)F)c3)cc21 [Compound I-434a]
49 | < 0.25 µM | O=C(N[C@H]1CCCn2nc(-c3ccnc(C(F)(F)F)c3)cc21)c1cncc(C(F)(F)F)n1 [Compound I-437a]
50 | < 0.25 µM | CCc1[nH]nc(C(=O)N[C@H]2CCCn3nc(-c4ccnc(C(F)(F)F)c4)cc32)c1F [Compound I-439a]
51 | < 0.25 µM | CC(C)c1nc(C(=O)N[C@H]2CCCn3nc(-c4ccnc(C(F)(F)F)c4)cc32)co1 [Compound I-441a]
52 | < 0.25 µM | O=C(N[C@H]1CCCn2nc(-c3ccnc(C(F)(F)F)c3)cc21)c1cc2cccnn2c1 [Compound I-442a]

Row | IC50 | SMILES
53 | < 0.25 µM | N#Cc1cccc(C(=O)N[C@H]2CCCCn3nc(-c4ccnc(C(F)(F)F)c4)cc32)c1 [Compound I-443a]
54 | < 0.25 µM | Cc1cnc(C(F)(F)F)cc1-n1cc2c(n1)CCC[C@@H]2NC(=O)c1cc(C(F)(F)F)nn1C [Compound I-445a]
55 | < 0.25 µM | COc1cc(-n2cc3c(n2)CC[C@@H]3NC(=O)c2cc(F)cc(F)c2)ccn1 [Compound I-446a]
56 | < 0.25 µM | COc1cc(-c2cc3n(n2)CC[C@@H]3NC(=O)c2cc(F)cc(F)c2)ccn1 [Compound I-447a]
57 | < 0.25 µM | COc1cc(-c2cc3n(n2)CC[C@H]3NC(=O)c2cc(F)cc(F)c2)ccn1 [Compound I-447b]
58 | < 0.25 µM | Cc1cc(C(=O)N[C@H]2CCCn3nc(-c4ccnc(C(F)(F)F)c4)cc32)n(-c2ccccc2)n1 [Compound I-448a]
59 | < 0.25 µM | N#Cc1cccc(C(=O)N[C@H]2CCCn3nc(-c4ccnc(C5CC5)c4)cc32)c1 [Compound I-449a]
60 | < 0.25 µM | O=C(N[C@H]1CCn2nc(-c3ccnc(C(F)(F)F)c3)cc21)c1cc(Cl)cc(C(F)(F)F)c1 [Compound I-451a]
61 | < 0.25 µM | N#Cc1cccc(C(=O)N[C@H]2CCc3nn(-c4ccnc(C(F)(F)F)c4)cc32)c1 [Compound I-454a]
62 | < 0.25 µM | N#Cc1cc(F)cc(C(=O)N[C@H]2CCc3nn(-c4ccnc(C(F)(F)F)c4)cc32)c1 [Compound I-455a]
63 | < 0.25 µM | COc1cc(-c2cc3n(n2)CCCC[C@@H]3NC(=O)c2cccc(C#N)c2)ccn1 [Compound I-456a]
64 | < 0.25 µM | N#Cc1cccc(C(=O)N[C@H]2CCCCn3nc(-c4ccnc(C5CC5)c4)cc32)c1 [Compound I-457a]
65 | < 0.25 µM | N#Cc1cc(Cl)cc(C(=O)N[C@H]2CCCn3nc(-c4ccnc(C(F)(F)F)c4)cc32)c1 [Compound I-458a]
66 | < 0.25 µM | Cn1nc(C(F)(F)F)cc1C(=O)N[C@H]1CCCn2nc(-c3ccnc(C4(C)CC4)c3)cc21 [Compound I-459a]
67 | < 0.25 µM | O=C(N[C@H]1CCCc2cnc(-c3ccnc(C(F)(F)F)c3)cc21)c1cc(F)cc(F)c1 [Compound I-461a]
